In US8431166B2, “Composition comprising the extract of Anemarrhena asphodeloides Bunge or the compounds isolated from the same for preventing and treating lipid metabolism disorder” (EWHA University-Industry Collaboration Foundation, priority 2009, dated 2013):
Where two headings read alike, the source gives them in different places.

System: Pre-adipocytes and 3T3-L1 cell
Experiment: Inhibitory effect on adipocyte differentiation (Oil-red O staining)
Type: cell-based
Conditions: 3T3-L1, Oil-red O staining; for IC50: day 7, IC50 determined using BioDataFit 1.02, read-out: Inhibitory Activities of Isolated Compound on Adipocyte Differentiation(IC50)
Protocol: Oil-red O was dissolved in 100% isopropanol, and stirred for about 16 hrs to prepare a 0.3% Oil-red O staining solution. Distilled water was added to the solution at a ratio of 0.3% Oil-red O:distilled water=6:4 (v/v), and mixed with each other. The solution was filtered using 3M paper once, and filtered again using a 0.2 μm syringe filter.
Pre-adipocytes and 3T3-L1 cell (American Tissue Culture. Collection, ATCC) were maintained in DMEM (Dulbecco's Modified Eagle Medium, Gibco-BRL, Grand Island, N.Y., USA) supplemented with 10% bovine calf serum. 4×10^4 of cells were suspended in 0.5 ml and seeded in each well of 24-well plate. The cells were grown to confluence for 48 hrs in the same medium and the medium was replaced with DMEM containing insulin (5 μg/mL), 10 μM rosiglitazone, 1 μM dexamethasone, and 10% fetal bovine serum (FBS) to differentiate adipocytes. […] As a control group, the cells were treated with Resveratrol (Sigma-Aldrich, 3,4′,5-Trihydroxy-trans-stilbene, 5-[(1E)-2-(4-Hydroxyphenyl)ethenyl]-1,3-benzenediol), which is known to inhibit the adipocyte differentiation and prevent diabetes, dissolved in DMSO at the same concentration. The cells were then replaced with 10% FBS/DMEM supplemented with 5 μg/mL insulin after 48 hrs, and also re-treated with each compound. After 48 hrs, the medium was replaced with fresh 10% FBS/DMEM. Day 7 after induction of adipocyte differentiation, the differentiated adipocytes were examined by Oil-red O staining. After removing the culture medium, the cells were gently washed with PBS once, and fixed in 10% formalin at room temperature for 1 hr. […] To wash off the staining solution, the cells were washed with distilled water, and dried (uncapped). After image scanning, the stained cells were treated with 100% isopropanol for 10 min to wash out the staining solution. The absorbance at 500 nm was measured to compare the Oil-red O staining between the compound-treated groups and the control group.

Molecule	IC50 [µM]	IC50 (Mus musculus, 168 h) [µM]	inhibitory effects on adipocyte differentiation (in words)
Oc1ccc(CC2COc3cc(O)ccc3C2)cc1 (stereo not drawn) [Compound 9, 7,4′-Dihydroxyhomoisoflavane]	> 500		
COc1cc(O)cc2c1C(=O)CC(c1ccc(O)cc1)O2 (stereo not drawn) [Compound 12, 4′,7-Dihydroxy-5-methoxyflavanone]		260	
(−)-4′-O-Methylnyasol [Compound 4]	45.9		showed inhibitory effects on adipocyte differentiation
C=CC(CC(=O)c1ccc(O)cc1)c1ccc(O)cc1 (stereo not drawn) [Compound 7, 1,3-bis-di-p-hydroxyphenyl-4-penten-1-one]	326		
Oc1ccc(/C=C/c2cc(O)cc(O)c2)cc1 [Resveratrol, 3,4′,5-Trihydroxy-trans-stilbene, reference compound]		31.4	
Cc1c(O)cc2c(c1O)C(=O)/C(=C/c1ccc(O)cc1)CO2 [Compound 1, (E)-5,7-Dihydroxy-3-(4′-hydroxybenzylidene)-6-methylchroman-4-one]		336	
COc1cc(O)cc(O)c1C(=O)CCc1ccc(O)cc1 [Compound 13, 2′-O-methylphloretin]	> 500		
O=C(/C=C/c1ccc(O)cc1)c1ccc(O)cc1 [Compound 14, 4,4′-Dihydroxychalcon]		> 500	
COc1ccc(CCCc2ccc(O)cc2)c(O)c1 [Broussonin A]			showed inhibitory effects on adipocyte differentiation
Broussonin A [Compound 6]	74.5		
O=C(/C=C/c1ccc(O)cc1)c1ccc(O)cc1O [Compound 8, 2′,4′,4-Trihydroxychalcone]		96.4	showed inhibitory effects on adipocyte differentiation
C=C[C@H](/C=C\c1ccc(O)cc1)c1ccc(O)cc1 [Compound 5, (−)-Nyasol]		108	
COc1cc(O)ccc1C(=O)/C=C/c1ccc(O)cc1 [Compound 10, 2′-O-Methylisoliquiritigenin]	41.8		showed inhibitory effects on adipocyte differentiation
O=C(C#Cc1ccc(O)cc1)c1ccc(O)cc1 [Compound 3, 1,3-bis(4-hydroxyphenyl)prop-2-yn-1-one]		5.3	excellent inhibitory effects on adipocyte differentiation even at lower concentration than the control group Resveratrol
